In patent US9309225B2, “N-((1-benzyl-1H-1,2,3-triazol-4-yl)methyl)arylamide compounds as potential anticancer agents and a process for the preparation thereof” (COUNCIL OF SCIENTIFIC & INDUSTRIAL RESEARCH, priority 2013, dated 2016):

Assays:
HS 578T = assay: NCI sixty human tumor cell line screen, Breast panel; assay type: cell-based; conditions: NCI protocol
Method: (§1) The in vitro anticancer activity studies for these N-((1-benzyl-1H-1,2,3-triazol-4-yl)methyl) arylamide analogues were carried out at the National Cancer Institute, USA.
(§2) The N-((1-benzyl-1H-1,2,3-triazol-4-yl)methyl)arylamide analogues have been tested at NCI, USA, against sixty human tumor cell lines derived from nine cancer types (leukemia, non-small cell lung cancer, colon cancer, CNS cancer, melanoma cancer, ovarian cancer, renal cancer, prostate cancer and breast cancer). For these compounds results are expressed as growth inhibition (GI50) values as per NCI protocol.

MDA-MB-31/ATCC = assay: as above; assay type: cell-based; conditions: NCI protocol
Method: as §1, §2

T-47D = assay: as above; assay type: cell-based; conditions: T47D, NCI protocol
Method: as §1, §2

BT-549 = assay: as above; assay type: cell-based; conditions: BT-549, Breast, NCI protocol
Method: as §1, §2

MDA-MB-468 = assay: as above; assay type: cell-based; conditions: MDA-MB-468, Breast, NCI protocol
Method: as §1, §2

TK-10 = assay: NCI sixty human tumor cell line screen, Renal panel; assay type: cell-based; conditions: TK-10, Renal, NCI protocol
Method: as §1, §2

UO-31 = assay: as above; assay type: cell-based; conditions: UO-31, Renal, NCI protocol
Method: as §1, §2

CAKI-1 = assay: as above; assay type: cell-based; conditions: CAKI-1, Renal, NCI protocol
Method: as §1, §2

ACHN = assay: as above; assay type: cell-based; conditions: NCI protocol
Method: as §1, §2

A498 = assay: as above; assay type: cell-based; conditions: NCI protocol
Method: as §1, §2

RXF 393 = assay: as above; assay type: cell-based; conditions: RXF 393, Renal, NCI protocol
Method: as §1, §2

SN12C = assay: as above; assay type: cell-based; conditions: NCI protocol
Method: as §1, §2

OVCAR-8 = assay: NCI sixty human tumor cell line screen, Ovarian panel; assay type: cell-based; conditions: OVCAR-8, Ovarian, NCI protocol
Method: as §1, §2

OVCAR-3 = assay: as above; assay type: cell-based; conditions: OVCAR-3, Ovarian, NCI protocol
Method: as §1, §2

OVCAR-4 = assay: as above; assay type: cell-based; conditions: OVCAR-4, Ovarian, NCI protocol
Method: as §1, §2

NCI/ADR-RES = assay: as above; assay type: cell-based; conditions: NCI protocol
Method: as §1, §2

SK-OV-3 = assay: as above; assay type: cell-based; conditions: SK-OV-3, Ovarian, NCI protocol
Method: as §1, §2

KM12 = assay: NCI sixty human tumor cell line screen, Colon panel; assay type: cell-based; conditions: NCI protocol
Method: as §1, §2

HT29 = assay: as above; assay type: cell-based; conditions: HT-29, NCI protocol
Method: as §1, §2

HCT-116 = assay: as above; assay type: cell-based; conditions: HCT-116, Colon, NCI protocol
Method: as §1, §2

COLO 205 = assay: as above; assay type: cell-based; conditions: COLO 205, Colon, NCI protocol
Method: as §1, §2

SW-620 = assay: as above; assay type: cell-based; conditions: SW-620, Colon, NCI protocol
Method: as §1, §2

HOP-62 = assay: NCI sixty human tumor cell line screen, Non-small-cell-lung panel; assay type: cell-based; conditions: HOP-62, Non-small-cell-lung, NCI protocol
Method: as §1, §2

EKVX = assay: as above; assay type: cell-based; conditions: NCI protocol
Method: as §1, §2

A549/ATCC = assay: as above; assay type: cell-based; conditions: NCI protocol
Method: as §1, §2

NCI-H522 = assay: as above; assay type: cell-based; conditions: NCI protocol
Method: as §1, §2

NCI-H460 = assay: as above; assay type: cell-based; conditions: NCI protocol
Method: as §1, §2

NCI-H226 = assay: as above; assay type: cell-based; conditions: NCI protocol
Method: as §1, §2

SF-295 = assay: NCI sixty human tumor cell line screen, CNS panel; assay type: cell-based; conditions: SF-295, CNS, NCI protocol
Method: as §1, §2

SNB-19 = assay: NCI sixty human tumor cell line screen, CNS panel; assay type: cell-based; conditions: SNB-19, CNS, NCI protocol
Method: as §1, §2

U251 = assay: NCI sixty human tumor cell line screen, CNS panel; assay type: cell-based; conditions: U-251, NCI protocol
Method: as §1, §2

SF-539 = assay: NCI sixty human tumor cell line screen, CNS panel; assay type: cell-based; conditions: SF-539, CNS, NCI protocol
Method: as §1, §2

SF-268 = assay: NCI sixty human tumor cell line screen, CNS panel; assay type: cell-based; conditions: SF-268, CNS, NCI protocol
Method: as §1, §2

SNB-75 = assay: NCI sixty human tumor cell line screen, CNS panel; assay type: cell-based; conditions: SNB-75, CNS, NCI protocol
Method: as §1, §2

DU-145 = assay: NCI sixty human tumor cell line screen, Prostate panel; assay type: cell-based; conditions: DU-145, Prostate, NCI protocol
Method: as §1, §2

PC-3 = assay: as above; assay type: cell-based; conditions: PC-3, Prostate, NCI protocol
Method: as §1, §2

M14 = assay: NCI sixty human tumor cell line screen, Melanoma panel; assay type: cell-based; conditions: NCI protocol
Method: as §1, §2

LOX IMVI = assay: as above; assay type: cell-based; conditions: NCI protocol
Method: as §1, §2

MDA-MB-435 = assay: as above; assay type: cell-based; conditions: MDA-MB-435, Melanoma, NCI protocol
Method: as §1, §2

UACC-62 = assay: as above; assay type: cell-based; conditions: UACC-62, Melanoma, NCI protocol
Method: as §1, §2

SK-MEL-2 = assay: as above; assay type: cell-based; conditions: SK-MEL-2, Melanoma, NCI protocol
Method: as §1, §2

SK-MEL-28 = assay: as above; assay type: cell-based; conditions: SK-MEL-28, Melanoma, NCI protocol
Method: as §1, §2

SK-MEL-5 = assay: as above; assay type: cell-based; conditions: SK-MEL-5, Melanoma, NCI protocol
Method: as §1, §2

`O=C(NCc1cn(Cc2cccc(Oc3ccccc3)c2)nn1)c1cccnc1Nc1ccccc1` [Compound 1a, N-((1-(3-Phenoxybenzyl)-1H-1,2,3-triazol-4-yl)methyl)-2-(phenylamino)nicotinamide] showed a GI50 (HS 578T) of 30.9 µM, a GI50 (MDA-MB-31/ATCC) of 14.5 µM and a GI50 (T-47D) of 21.4 µM. It also gave a GI50 (BT-549) of 45.5 µM, a GI50 (MDA-MB-468) of 51.7 µM and a melting point of 124 to 126 °C. It also gave a GI50 (TK-10) of 24.5 µM, a GI50 (UO-31) of 86.3 µM and a GI50 (CAKI-1) of 64.2 µM. The GI50 (ACHN) was 11.1 µM, the GI50 (A498) was 13.7 µM and the GI50 (RXF 393) was 5.69 µM. The GI50 (SN12C) was 52.9 µM, the GI50 (OVCAR-8) was 7.44 µM and the GI50 (OVCAR-3) was 17.7 µM. For the same molecule, the GI50 (OVCAR-4) was 23.4 µM, the GI50 (NCI/ADR-RES) was 14 µM and the GI50 (SK-OV-3) was 5.94 µM. The GI50 (KM12) was 3.63 µM, the GI50 (HT29) was 3.65 µM and the GI50 (HCT-116) was 3.4 µM. It also gave a GI50 (COLO 205) of 2.79 µM, a GI50 (SW-620) of 3.97 µM and a GI50 (HOP-62) of 5.58 µM. The GI50 (EKVX) was 5.18 µM, the GI50 (A549/ATCC) was 4.81 µM and the GI50 (NCI-H522) was 2.11 µM. For the same molecule, the GI50 (NCI-H460) was 2.85 µM, the GI50 (NCI-H226) was 3.24 µM and the GI50 (SF-295) was 3.69 µM. For the same molecule, the GI50 (SNB-19) was 3.27 µM, the GI50 (U251) was 3.61 µM and the GI50 (SF-539) was 3.1 µM. It also gave a GI50 (SF-268) of 3.22 µM, a GI50 (SNB-75) of 1.94 µM and a GI50 (DU-145) of 8.58 µM. The GI50 (PC-3) was 20.4 µM, the GI50 (M14) was 2.86 µM and the GI50 (LOX IMVI) was 4.54 µM. It also gave a GI50 (MDA-MB-435) of 2.65 µM, a GI50 (UACC-62) of 3.02 µM and a GI50 (SK-MEL-2) of 6.05 µM. The GI50 (SK-MEL-28) was 4.93 µM and the GI50 (SK-MEL-5) was 3.89 µM.

Work on `COc1ccc(Nc2ncccc2C(=O)NCc2cn(Cc3cccc(Oc4ccccc4)c3)nn2)cc1` [Compound 1e, 2-(4-Methoxyphenylamino)-N-((1-(3-phenoxybenzyl)-1H-1,2,3-triazol-4-yl)methyl) nicotinamide] yielded a GI50 (MDA-MB-31/ATCC) of 5.35 µM, a GI50 (T-47D) of 4.68 µM and a GI50 (BT-549) of 7.16 µM. For the same molecule, the GI50 (MDA-MB-468) was 2.42 µM, the melting point was 95 to 98 °C and the GI50 (TK-10) was 5.16 µM. The GI50 (UO-31) was 5.25 µM, the GI50 (CAKI-1) was 6.3 µM and the GI50 (ACHN) was 6.9 µM. The GI50 (A498) was 4.18 µM, the GI50 (RXF 393) was 3.77 µM and the GI50 (SN12C) was 7.41 µM. For the same molecule, the GI50 (OVCAR-8) was 5.96 µM, the GI50 (OVCAR-3) was 3.69 µM and the GI50 (OVCAR-4) was 5.42 µM. It also gave a GI50 (NCI/ADR-RES) of 3.21 µM, a GI50 (SK-OV-3) of 4.33 µM and a GI50 (KM12) of 3.43 µM. For the same molecule, the GI50 (HT29) was 3.66 µM, the GI50 (HCT-116) was 4.17 µM and the GI50 (COLO 205) was 2.86 µM. For the same molecule, the GI50 (SW-620) was 3.86 µM, the GI50 (HOP-62) was 5.07 µM and the GI50 (EKVX) was 4.16 µM. The GI50 (A549/ATCC) was 3.44 µM, the GI50 (NCI-H522) was 2.13 µM and the GI50 (NCI-H460) was 3.52 µM. It also gave a GI50 (NCI-H226) of 3.92 µM, a GI50 (SF-295) of 2.94 µM and a GI50 (SNB-19) of 3.55 µM. The GI50 (U251) was 3.91 µM, the GI50 (SF-539) was 2.79 µM and the GI50 (SF-268) was 4.59 µM. The GI50 (SNB-75) was 3.09 µM, the GI50 (DU-145) was 1.05 µM and the GI50 (PC-3) was 4.74 µM. It also gave a GI50 (M14) of 3.15 µM, a GI50 (LOX IMVI) of 3.6 µM and a GI50 (MDA-MB-435) of 1.71 µM. For the same molecule, the GI50 (UACC-62) was 3.13 µM, the GI50 (SK-MEL-2) was 3.66 µM and the GI50 (SK-MEL-28) was 3.88 µM. It also gave a GI50 (SK-MEL-5) of 2.9 µM.

`COc1cc(Nc2ncccc2C(=O)NCc2cn(Cc3cccc(Oc4ccccc4)c3)nn2)cc(OC)c1` [Compound 1i, 2-(3,5-Dimethoxyphenylamino)-N-((1-(3-phenoxybenzyl)-1H-1,2,3-triazol-4-yl)methyl) nicotinamide] gave a GI50 (MDA-MB-31/ATCC) of 5.35 µM, a GI50 (T-47D) of 4.68 µM and a GI50 (BT-549) of 7.16 µM. For the same molecule, the GI50 (MDA-MB-468) was 2.42 µM, the melting point was 123 to 125 °C and the GI50 (TK-10) was 5.16 µM. For the same molecule, the GI50 (UO-31) was 5.25 µM, the GI50 (CAKI-1) was 6.3 µM and the GI50 (ACHN) was 6.9 µM. It also gave a GI50 (A498) of 4.18 µM, a GI50 (RXF 393) of 3.77 µM and a GI50 (SN12C) of 7.41 µM. For the same molecule, the GI50 (OVCAR-8) was 5.96 µM, the GI50 (OVCAR-3) was 3.69 µM and the GI50 (OVCAR-4) was 5.42 µM. The GI50 (NCI/ADR-RES) was 3.21 µM, the GI50 (SK-OV-3) was 4.33 µM and the GI50 (KM12) was 3.84 µM. It also gave a GI50 (HT29) of 3.88 µM, a GI50 (HCT-116) of 4.34 µM and a GI50 (COLO 205) of 4.12 µM. It also gave a GI50 (SW-620) of 3.88 µM, a GI50 (HOP-62) of 6.31 µM and a GI50 (EKVX) of 6.33 µM. It also gave a GI50 (A549/ATCC) of 4.02 µM, a GI50 (NCI-H522) of 3.31 µM and a GI50 (NCI-H460) of 3.98 µM. It also gave a GI50 (NCI-H226) of 9.82 µM, a GI50 (SF-295) of 4.06 µM and a GI50 (SNB-19) of 9.64 µM. It also gave a GI50 (U251) of 4.58 µM, a GI50 (SF-539) of 4.39 µM and a GI50 (SF-268) of 5.43 µM. The GI50 (SNB-75) was 3.98 µM, the GI50 (DU-145) was 1.05 µM and the GI50 (PC-3) was 4.74 µM. For the same molecule, the GI50 (M14) was 4.8 µM, the GI50 (LOX IMVI) was 5.1 µM and the GI50 (MDA-MB-435) was 2.23 µM. The GI50 (UACC-62) was 3.86 µM, the GI50 (SK-MEL-2) was 6.69 µM and the GI50 (SK-MEL-28) was 4.14 µM. It also gave a GI50 (SK-MEL-5) of 3.11 µM.
